The values below come from US20080199484A1, “Use Of Cox-2 Inhibitor to Prevent T-Cell Anergy Induced By Dendritic Cell Therapy” (CEDARS-SINAI MEDICAL CENTER, priority 2003, published 2008).

Assay [1] has as its system COX-2 protein in human glioma cells (U-87MG, LN-18, MG-377). Kind of assay: Western blot of COX-2 protein expression in human glioma cells. In kind it is cell-based. The conditions noted are these: glioma cells treated with TRAIL and TNF-α plus COX-2 inhibitor (NS-398 10 μM); FIG. 1A. In general terms: A western blot detects proteins with antibodies after separation by electrophoresis.
Method: Samples were extracted with buffer containing 1% Triton X-100, 150 mM NaCl, 50 mM Tris (hydroxymethyl aminomethane) (pH 7.5) and 1 mM phenylmethylsulfonyl fluoride (PMSF). The cell debris was removed by centrifugation at 14,000 g for 20 minutes and the supernatant was subjected to SDS polyacrylamide gel electrophoresis (SDS-PAGE) and loaded on a 7.5% polyacrylamide gel (obtained from Bio-Rad; Hercules, Calif.). Electrophoretic transfer to nitrocellulose membranes (obtained from Amersham Biosciences; Piscataway, N.J.) was followed by immunoblotting with a mouse IgG1 anti-COX-2 antibody (obtained from Phamingen) or a mouse IgG1 anti-beta-tublin (obtained from Sigma). This was followed by hybridization with a peroxidase-linked anti-mouse IgG antibody (obtained from Amersham Bioscience). The signal was detected by chemiluminescence using ECL detection system (obtained from Amersham Bioscience) and Hyperfilm ECL (obtained from Amersham Bioscience).
Expression of COX-2 protein in human glioma cells was examined by Western blot (FIG. 1A).

Assay [2] deals with PGE2 in the supernatants of glioma cell cultures. Description: PGE2 ELISA in supernatants of glioma cell cultures. In kind it is cell-based, human. The conditions noted are these: for PGE2 in the culture supernatants (ELISA): FIG. 1B. How it is done: Tumor cells, including U-87MG human glioma cell line (obtained from American Type Culture Collection; Rockville, Md.), LN-18 cell line (obtained from Dr. Erwin Van Meier, Emory University; Atlanta, Ga.), and primary cultured human glioma MG-377 (obtained from surgical specimen of a glioblastoma patient at neurosurgical institute, Cedars-Sinai Medical Center; Los Angeles, Calif.), were maintained at 37° C. and 5% CO2 in Dulbecco's Modified Eagles Medium (available from Sigma; St. Louis, Mo.; hereinafter “DMEM”) supplemented with 10% heat-inactivated fetal bovine serum (available from Sigma; hereinafter “[…]”), 2 mM […], 10 mM HEPES (available from Sigma), 100 U/ml penicillin (available from Sigma), 100 μg/ml streptomycin (available from Sigma). 100% di-methyl sulfonyl oxygen (available from Sigma; hereinafter “DMSO”) dissolved NS-398 (selective COX-2 inhibitor; obtained from Cayman Chemical) was used at concentrations of 10 μM. Recombinant human TNF-α (obtained from BioSource International; Camarillo, Calif.) was used at a concentration of 20 ng/ml and TRAIL (obtained from PeproTech Inc.; Rocky Hill, N.J.) was used at a concentration of 300 ng/ml.
Glioma cells were plated to 6-well culture plate at density of 1×10^6 cells/well/2 ml with fresh X-Vivo 15 medium. Several glioma cells were pre-treated with the COX-2 inhibitor NS-398 for 8 hours. The NS-398 treated glioma cells were cultured with TNF-α, TRAIL, and NS-398. The other cells were cultured with TNF-α and TRAIL. After 24 hours culture with these agents, iDCs were put into the wells at the density of 3×10^5 cells/well, and were co-cultured with glioma cells for 16 hours. Several iDCs were cultured with TNF-α/TRAIL or TNF-α/TRAIL/NS-398 without tumor cells. Human glioma cell lines (U-87MG and LN-18) and stable transfectants (LN-18-COX-2 and LN-18-EP) were co-cultured with healthy donor iDCs, and MG-377 were co-cultured with autologous iDCs. […]
PGE2 in the culture supernatants was measured by ELISA (FIG. 1B).
On the technique in general: ELISA stands for enzyme-linked immunosorbent assay.

Assay [3] concerns glioma cells (U-87MG, LN-18, MG-377); iDCs. In kind it is cell-based. The conditions noted are these: NS-398 treatment; data not shown.
The subject of assay [4] is CD11c+ DCs. Description: Flow cytometric analysis of DC surface and maturation markers (CD86, HLA-DR, CD83, CCR7). In kind it is cell-based, human. The settings on record: FIG. 3; for CD83 and CCR7 expression (maturation markers) / CD86 expression, geometric mean: single-cultured iDCs; for CD83 and CCR7 expression (maturation markers): 16 hours co-stimulation, TNF-α 20 ng/ml; for CD86 expression, geometric mean: 16 hours, TRAIL 300 ng/ml and/or PGE2 0.1 μM, untreated iDCs: 647. How it is done:
Human PBMCs were separated from peripheral blood of a healthy donor and the aforementioned glioblastoma patient using Ficoll-Hypaque density centrifugation. PBMC were resuspended in X-Vivo 15 serum-free medium (obtained from Cambrex; Santa Rosa, Calif.) and allowed to adhere to 24-well culture plate at 37° C. The non-adherent cells were removed after 2 hours. CD4+ and CD8+ cells were isolated from these non-adherent cells with MiniMACS cell separation unit (obtained from Milenyi Biotec, Auburn, Calif.) and microbeads conjugated mouse monoclonal anti-human CD4 and CD8 antibody (obtained from Milenyi Biotec). CD4+ and CD8+ cells were used for mixed lymphocyte reaction (MLR) described later. The adherent cells were subsequently cultured in X-Vivo 15 serum-free medium. 20 ng/ml GM-CSF (obtained from BioSource International) and 10 ng/ml IL-4 (obtained from BioSource International) were added to the cultures on days 0, 2, and 4. After 7-day culture, the floating cells were transferred to fresh plates with fresh X-Vivo 15 medium as immature DCs (iDCs). Several iDCs were cultured with 300 ng/ml TRAIL and/or 0.1 μM PGE2 (obtained from Sigma) and/or 20 ng/ml TNF-α for 16 hours (TRAIL-DCs, PGE2-DCs, TRAIL/PGE2-DCs, TRAIL/TNF-α-DCs, TRAIL/TNF-α/PGE2-DCs).
(§1) Glioma cells were plated to 6-well culture plate at density of 1×10^6 cells/well/2 ml with fresh X-Vivo 15 medium. Several glioma cells were pre-treated with the COX-2 inhibitor NS-398 for 8 hours. The NS-398 treated glioma cells were cultured with TNF-α, TRAIL, and NS-398. The other cells were cultured with TNF-α and TRAIL. After 24 hours culture with these agents, iDCs were put into the wells at the density of 3×10^5 cells/well, and were co-cultured with glioma cells for 16 hours. Several iDCs were cultured with TNF-α/TRAIL or TNF-α/TRAIL/NS-398 without tumor cells. Human glioma cell lines (U-87MG and LN-18) and stable transfectants (LN-18-COX-2 and LN-18-EP) were co-cultured with healthy donor iDCs, and MG-377 were co-cultured with autologous iDCs.
Monoclonal mouse anti-human antibodies of PE-conjugated CD83, CD86, HLA-DR (obtained from Phamingen), FITC-conjugated CD11c (obtained from BioSource International), and unconjugated CCR7 (R&D Systems; Minneapolis, Minn.) were used for cell surface analysis of DCs. PE-conjugated F(ab′)2 goat anti-mouse immunoglobulins (obtained from DAKO Cytomation; Carpinteria, Calif.) was used for secondary antibody. Mouse IgG1 and IgG2a (obtained from Phamingen) were used for isotype control. DCs were stained with anti-CD86, HLA-DR, CD83, and CCR7 antibodies before staining with anti-CD11c antibody, and CD11c+DCs were isolated with MiniMACS cell separation unit and microbeads-conjugated anti-FITC antibody (obtained from Milenyi Biotec).
DCs were stained with anti-CD86, HLA-DR, CD83, CCR7, and CD11c antibody. CD11c+ DCs were isolated with cell separation unit and microbease-conjugated anti-FITC antibody.
On the technique in general: A flow cytometer gives signals particle by particle.

Assay [5] concerns isolated CD11c+ DCs. Kind of assay: IL-10 and IL-12p70 ELISA in supernatants of DC cultures. In kind it is cell-based, human. The conditions noted are these: FIG. 4. The procedure: as §1
PGE2 ELISA kit (obtained from Cyman Chemical; Ann Arbor, Mich.) was used according to the manufacture's protocol for measurement in the supernatants of glioma cell cultures. IL-10 and IL-12 p70 ELISA kits (obtained from Phamingen) were used according to the manufacture's protocols for measurement in the supernatants of cultures of tumor cells or isolated CD11c+ DCs. CD40-CD40L interaction is a main trigger of IL-12 production by DCs (Cella, M. et al., “Ligation of CD40 on dendritic cells triggers production of high levels of interleukin-12 and enhances T cell stimulatory capacity: T-T help via APC activation,” J. Exp. Med., Vol. 184, pp. 747-752 (1996)). Based on this evidence, cells were co-cultured with NIH-CD40L cells (obtained from Dr. Gang Zeng, National Cancer Institute, N11, MD; the ratio of NIH-CD40L:DCs=1:1) for 16 hours, and the supernatants of co-cultures were used as the samples. The lower detection limit of each kit was 7.8 pg/ml. All samples and standards were run in duplicate.
IL-10 and IL-12p70 in the supernatants of cultures were measured by ELISA, and the results were statistically compared with NS-398(−) single-cultured DCs (FIG. 4).

Assay [6] relates to CD4+ T cells. Description: Mixed lymphocyte reaction and IFN-γ/IL-10 ELISPOT (Th cell polarization). In kind it is cell-based, human.
The test system of assay [7] is COX-2 overexpressing glioma cells. The settings on record: supplementing with recombinant IL-12, in the absence of COX-2 inhibitor; cited from earlier work.
[8] abbreviates: DCs co-cultured with NS-398 treated glioma.
[9] abbreviates: single-cultured DCs, compared with NS-398(−) single-cultured DCs.

`CS(=O)(=O)Nc1ccc([N+](=O)[O-])cc1OC1CCCCC1` [NS-398]: the “COX-2 expression (Western blot)” value in assay [1] is reported as “did not extinguish the COX-2 expression”. Moreover, the “PGE2 in the culture supernatants (ELISA)” value in assay [2] (LN-18, each group) is recorded as “no significant difference”; in assay [2] (U-87MG and MG-377, addition of NS-398 10 μM to TRAIL/TNF-α cultures, p<0.01) it was “significantly reduced”. For the same molecule, the “PGE2 produced by the COX-2 transfectant” value in assay [2] (LN-18-COX-2 stable transfectant) is recorded as “suppressed the PGE2”. Further, in assay [3], the “death ratio in each glioma” value is “did not cause a change of the death ratio”. In addition, the “geometric means of the expressing markers (CD86, HLA-DR, CD83, CCR7)” value in assay [4] (DCs co-cultured with glioma cells, with or without NS-398 treatment) is given as “no statistical difference”. For the same molecule, the “IL-10 (ELISA)” value in assay [5] (setting [8]) is “downregulation of IL-10”. Moreover, the “IL-12 (ELISA)” value in assay [5] (setting [8]) was “augmentation of IL-12”. Further, in assay [5] (setting [9]), the “IL-10 production (ELISA)” value is listed as “did not effect to change”. Moreover, the “IL-12p70 production (ELISA)” value in assay [5] (setting [9]) is “did not effect to change”. Moreover, the “DC-mediated Th cell polarization” value in assay [6] (DCs co-cultured with COX-2-inhibited glioma cells, FIG. 5A-F) is recorded as “bias toward Th1”. For the same molecule, in assay [6] (LN-18-COX-2 stable transfectant with COX-2 inhibitor), the “Th cell polarization by tumor-infiltrating DCs” value is listed as “polarizing the Th cells toward Th1”. Also, the “IL-10 expression (ELISPOT)” value in assay [6] (co-culture of primary glioma (MG-377) with autologous DCs, FIG. 5E) is “decrease in IL-10”; in assay [6] (co-cultured DCs and glioma, FIG. 5A, 5B), “decrease in IL-10 expression”. The “interferon-gamma expression (ELISPOT)” value in assay [6] (co-culture of primary glioma (MG-377) with autologous DCs, FIG. 5F) was “decrease in interferon-gamma”; in assay [6] (co-cultured DCs and glioma, FIG. 5C, 5D), “increase in interferon-gamma expression”.
Consider `CCCCC[C@H](O)/C=C/[C@H]1[C@H](O)CC(=O)[C@@H]1C/C=C\CCCC(=O)O` [PGE2, ProstaglandinE2], for which, in assay [4], the “CD83 and CCR7 expression (maturation markers)” value (from here on “CD83 and CCR7 expression”) is given as “did not induce CD83 or CCR7 expression”; the “CD86 expression, geometric mean” value turned out to be 2779. In assay [6] (soluble PGE2 added into culture supernatant of LN-18-EP), the “Th cell polarization by tumor-infiltrating DCs” value was “same effect on Th2 polarization as LN-18-COX-2”.
In the case of TNF-α, the “CD83 and CCR7 expression” value in assay [4] was “induced both CD83 and CCR7 expressions”.

B1: recombinant IL-12: recombinant IL-12 supplementing DC-based glioma immunotherapy (Akasaki et al.) (protein, UniProt P43431 23-215; P43432 23-335, looked up)
Interleukin-12 subunit alpha: RVIPVSGPARCLSQSRNLLKTTDDMVKTAREKLKHYSCTAEDIDHEDITRDQTSTLKTCLPLELHKNESCLATRETSSTTRGSCLPPQKTSLMMTLCLGSIYEDLKMYQTEFQAINAALQNHNHQQIILDKGMLVAIDELMQSLNHNGETLRQKPPVGEADPYRVKMKLCILLHAFSTRVVTINRVMGYLSSA
Interleukin-12 subunit beta: MWELEKDVYVVEVDWTPDAPGETVNLTCDTPEEDDITWTSDQRHGVIGSGKTLTITVKEFLDAGQYTCHKGGETLSHSHLLLHKKENGIWSTEILKNFKNKTFLKCEAPNYSGRFTCSWLVQRNMDLKFNIKSSSSSPDSRAVTCGMASLSAEKVTLDQRDYEKYSVSCQEDVTCPTAEETLPIELALEARQQNKYENYSTSFFIRDIIKPDPPKNLQMKPLKNSQVEVSWEYPDSWSTPHSYFSLKFFVRIQRKKEKMKETEEGCNQKGAFLVEKTSTEVQCKGGNVCVQAQDRYYNSSCSKWACVPCRVRS
On to B1, for which, in assay [7], the “therapeutic effect of DC-based glioma immunotherapy” value is listed as “potent therapeutic effect”.

B2: TRAIL: TNF-related apoptosis inducing ligand, obtained from PeproTech, used at 300 ng/ml (protein, UniProt P50591 1-281, looked up)
Tumor necrosis factor ligand …: MAMMEVQGGPSLGQTCVLIVIFTVLLQSLCVAVTYVYFTNELKQMQDKYSKSGIACFLKEDDSYWDPNDEESMNSPCWQVKWQLRQLVRKMILRTSEETISTVQEKQQNISPLVRERGPQRVAAHITGTRGRSNTLSSPNSKNEKALGRKINSWESSRSGHSFLSNLHLRNGELVIHEKGFYYIYSQTYFRFQEEIKENTKNDKQMVQYIYKYTSYPDPILLMKSARNSCWSKDAEYGLYSIYQGGIFELKENDRIFVSVTNEHLIDMDHEASFFGAFLVG
B2: in assay [4], the “CD83 and CCR7 expression” value is “did not induce CD83 or CCR7 expression”; the “CD86 expression, geometric mean” value is on record as 1086.
